Read-outs that look alike come from different tables or passages of the source.
What was measured:
[1] = molecular target: T1, CTX-M-15 (Escherichia coli, UniProt Q9EXV5); assay: β-Lactamase inhibitory activity, nitrocefin hydrolysis; type: biochemical; details: class (A); 30 min pre-incubation
T1 construct: made in house; host or cells: E. coli

[2] = molecular target: T2, OXA-15 (Pseudomonas aeruginosa, UniProt Q51574); assay: as above; type: biochemical
T2 construct: made in house; host or cells: E. coli

[3] = molecular target: T3, OXA-11 (Pseudomonas aeruginosa, UniProt Q06778); assay: as above; type: biochemical
T3 construct: made in house; host or cells: E. coli

[4] = molecular target: AmpC (PAE) (Pseudomonas aeruginosa, UniProt P24735); assay: biochemical
Experimental: (§1) Method 1: β-Lactamase Inhibitory Activity, Determination of IC50 (Table 1)
(§2) Enzyme activity was monitored by spectrophotometric measurement of nitrocefin (NCF-TOKU-E, N005) hydrolysis at 485 nm, at room temperature and in assay buffer A: 100 mM Phosphate pH7, 2% glycerol and 0.1 mg/mL Bovine serum albumin (Sigma, B4287). Enzymes were cloned in E. coli expression vector, expressed and purified in house using classical procedures. To a transparent polystyrene plate (Corning, 3628) were added in each well 5 μL DMSO or inhibitor dilutions in DMSO and 80 μL enzyme in buffer A. Plates were immediately read at 485 nm in a microplate spectrophotometer (BioTek, PowerWave HT) to enable background subtraction. After 30 min of pre-incubation at room temperature, 15 μL of NCF (200 μM final) were finally added in each well. Final enzyme concentrations were 0.1 nM (TEM-1), 0.075 nM (SHV-1), 0.4 nM (CTX-M-15), 1 nM (KPC-2), 0.2 nM (P99 AmpC), 0.2 nM (CMY-37), 0.4 nM (AmpC P. aeruginosa), 0.2 nM (OXA-1), 1.2 nM (OXA-11), 0.4 nM (OXA-15) and 0.3 nM (OXA-48). After 20 min incubation at room temperature, plates were once again read at 485 nm. Enzyme activity was obtained by subtracting the final signal by the background, and was converted to enzyme inhibition using non inhibited wells. IC50 curves were fitted to a classical Langmuir equilibrium model with Hill slope using XLFIT (IDBS).

[5] = molecular target: AmpC (P99) (Enterobacter cloacae, UniProt P05364); assay: biochemical
Experimental: as §1, §2

[6] = molecular target: T4, KPC-2 (Klebsiella pneumoniae, UniProt Q9F663); assay: β-Lactamase inhibitory activity, nitrocefin hydrolysis; type: biochemical; details: class (A); 30 min pre-incubation
T4 construct: made in house; host or cells: E. coli

[7] = molecular target: CMY-37 (Citrobacter freundii); assay: as above; type: biochemical
[8] = molecular target: T5, TEM-1 (Escherichia coli, UniProt P62593); assay: as above; type: biochemical; details: class (A); 30 min pre-incubation
T5 construct: made in house; host or cells: E. coli

[9] = tested on: K. oxytoca; assay: Synergy with ceftazidime: MIC of ceftazidime at fixed concentration of compound; type: cell-based; details: Klebsiella oxytoca, read-out: MIC of CAZ + compound (4 μg/mL)
Experimental: (§3) Method 2: MIC of Compounds and Synergy with Ceftazidime Against Bacterial Isolates (Table 2 and 3)
(§4) Compounds of the present invention were assessed against genotyped bacterial strains alone or in combination with the β-lactam ceftazidime. In the assays, MICs of said compounds, or of ceftazidime at fixed concentrations of said compounds were determined by the broth microdilution method according to the Clinical Laboratory Standards Institute (CLSI—M7-A7). Briefly, compounds alone according to the invention were prepared in DMSO and spotted (2 μL each) on sterile polystyrene plates (Corning, 3788). Compounds and ceftazidime dilutions were prepared in DMSO and spotted (1 μL each) on sterile polystyrene plates (Corning, 3788). Log phase bacterial suspensions were adjusted to a final density of 5×10^5 cfu/mL in cation-adjusted Mueller-Hinton broth (Beckton-Dickinson) and added to each well (98 μL). Microplates were incubated for 16-20 h at 35° C. in ambient air. The MIC of the compounds was defined as the lowest concentration of said compounds that prevented bacterial growth as read by visual inspection. The MIC of ceftazidime at each compound concentration was defined as the lowest concentration of ceftazidime that prevented bacterial growth as read by visual inspection.

[10] = tested on: C. freundii; assay: as above; type: cell-based; details: Citrobacter freundii; CFR UFR10; beta-lactamases OXA-48; read-out: MIC of CAZ + compound (4 μg/mL)
Experimental: as §3, §4

[11] = tested on: P. mirabilis; assay: as above; type: cell-based; details: Proteus mirabilis; PMI UFR82; beta-lactamases CMY-2; read-out: MIC of CAZ + compound (4 μg/mL)
Experimental: as §3, §4

[12] = tested on: M. morganii; assay: as above; type: cell-based; details: Morganella morganii, read-out: MIC of CAZ + compound (4 μg/mL)
Experimental: as §3, §4

[13] = tested on: E. aerogenes; assay: as above; type: cell-based; details: Klebsiella aerogenes; EAE 200261; beta-lactamases TEM-x AmpC; read-out: MIC of CAZ + compound (4 μg/mL)
Experimental: as §3, §4

[14] = tested on: K. pneumoniae; assay: as above; type: cell-based; details: Klebsiella pneumoniae
Experimental: as §3, §4

[15] = tested on: P. aeruginosa; assay: as above; type: cell-based; details: Pseudomonas aeruginosa, read-out: MIC of CAZ + compound (4 μg/mL)
Experimental: as §3, §4

[16] = tested on: E. cloacae; assay: as above; type: cell-based; details: Enterobacter cloacae
Experimental: as §3, §4

[17] = molecular target: T6, OXA-1 (Escherichia coli, UniProt P13661); assay: β-Lactamase inhibitory activity, nitrocefin hydrolysis; type: biochemical; details: class (D); 30 min pre-incubation
T6 construct: made in house; host or cells: E. coli

[18] = molecular target: T7, SHV-1 (Klebsiella pneumoniae, UniProt P0AD64); assay: as above; type: biochemical
T7 construct: made in house; host or cells: E. coli

**Q.** For O=C(O)C(F)(F)F.O=C1N2C[C@H](c3scnc3[C@H]2c2ncc[nH]2)N1OS(=O)(=O)[O-].[Na+] (relative stereo) [Example 1, Sodium and 2,2,2-trifluoroacetate [trans-7-(1H-imidazol-3-ium-2-yl)-9-oxo-3-thia-5,8,10-triaza-tricyclo[6.2.1.0^2,6]undeca-2(6),4-dien-10-yl]sulfate], which IC50 [1] is on record?
**A.** 2.7 nM

**Q.** And the IC50 [2]?
**A.** 270 nM

**Q.** And the IC50 [3]?
**A.** 410 nM

**Q.** What about the IC50 [4] of the same compound?
**A.** 17 nM

**Q.** And the IC50 [5]?
**A.** 0.37 nM

**Q.** What about the IC50 [6] of the same compound?
**A.** 4.2 nM

**Q.** What about the IC50 [7] of the same compound?
**A.** 0.63 nM

**Q.** What about the IC50 [8] of the same compound?
**A.** 12 nM

**Q.** And the MIC [9]?
**A.** < 0.25 mg/L

**Q.** What about the MIC [10] of the same compound?
**A.** < 0.25 mg/L

**Q.** What about the MIC [11] of the same compound?
**A.** ≤ 0.25 mg/L

**Q.** What about the MIC [12] of the same compound?
**A.** ≤ 0.25 mg/L

**Q.** And the MIC [13]?
**A.** < 0.25 mg/L

**Q.** And the MIC ([14]; BAA1898, read-out: MIC of CAZ + compound (4 μg/mL), KPN BAA-1898, beta-lactamases TEM-1, SHV-11, SHV-12 KPC-2)?
**A.** 0.5 mg/L

**Q.** And the MIC ([14]; KPN 700603, beta-lactamases SHV-18 OXA-2, read-out: MIC of CAZ + compound (4 μg/mL))?
**A.** < 0.25 mg/L

**Q.** What about the MIC ([14]; KPN LIB, beta-lactamases SHV-11 OXA-48, read-out: MIC of CAZ + compound (4 μg/mL)) of the same compound?
**A.** < 0.25 mg/L

**Q.** And the MIC ([14]; KPN UFR42, beta-lactamases SHV-2, CTX-M-15 OXA-1 OXA-181 NDM-1, read-out: MIC of CAZ + compound (4 μg/mL))?
**A.** < 0.25 mg/L

**Q.** What about the MIC ([14]; KPN UFR43, beta-lactamases SHV-11, CTX-M-15 CMY-2 OXA-1 NDM-1, read-out: MIC of CAZ + compound (4 μg/mL)) of the same compound?
**A.** ≤ 0.25 mg/L

**Q.** What about the MIC ([14]; KPN UFR77, beta-lactamases CMY-2, read-out: MIC of CAZ + compound (4 μg/mL)) of the same compound?
**A.** < 0.25 mg/L

**Q.** And the MIC ([14]; KPN UFR79, beta-lactamases DHA-1 OXA-1, read-out: MIC of CAZ + compound (4 μg/mL))?
**A.** < 0.25 mg/L

**Q.** And the MIC ([14]; KPN UFR80, beta-lactamases SHV-11 DHA-1 OXA-1, read-out: MIC of CAZ + compound (4 μg/mL))?
**A.** < 0.25 mg/L

**Q.** What about the MIC ([14]; read-out: MIC of CAZ + compound (4 μg/mL), KPN 6299, beta-lactamases TEM-1, SHV-11 OXA-163) of the same compound?
**A.** ≤ 0.125 mg/L

**Q.** What about the MIC ([14]; read-out: MIC of CAZ + compound (4 μg/mL), KPN 260252, beta-lactamases TEM-1, SHV-11 KPC-3) of the same compound?
**A.** > 128 mg/L

**Q.** And the MIC ([15]; PAE CIP107051, beta-lactamases TEM-24)?
**A.** 8 mg/L

**Q.** What about the MIC ([15]; PAE MUS, beta-lactamases OXA-20 OXA-18) of the same compound?
**A.** 8 mg/L

**Q.** What about the MIC ([16]; ECL 2185D, beta-lactamases OXA-163, read-out: MIC of CAZ + compound (4 μg/mL)) of the same compound?
**A.** 1 mg/L

**Q.** And the MIC ([16]; ECL 190310, beta-lactamases AmpC, read-out: MIC of CAZ + compound (4 μg/mL))?
**A.** < 0.25 mg/L

**Q.** And the MIC ([16]; ECL 200138, beta-lactamases AmpC, read-out: MIC of CAZ + compound (4 μg/mL))?
**A.** 8 mg/L

**Q.** What about the MIC ([16]; ECL 260033, beta-lactamases AmpC, read-out: MIC of CAZ + compound (4 μg/mL)) of the same compound?
**A.** 4 mg/L

**Q.** And the MIC ([16]; ECL 260323, beta-lactamases AmpC, read-out: MIC of CAZ + compound (4 μg/mL))?
**A.** < 0.25 mg/L

**Q.** And the MIC ([16]; ECL HAN, beta-lactamases OXA-35, read-out: MIC of CAZ + compound (4 μg/mL))?
**A.** 2 mg/L

**Q.** What about the MIC ([16]; ECL NEM146383, beta-lactamases AmpC, read-out: MIC of CAZ + compound (4 μg/mL)) of the same compound?
**A.** < 0.25 mg/L

**Q.** And the MIC ([16]; ECL P99, beta-lactamases AmpC, read-out: MIC of CAZ + compound (4 μg/mL))?
**A.** < 0.25 mg/L

**Q.** And the MIC ([16]; ECL UFR12, beta-lactamases CTX-M-9 OXA-48, read-out: MIC of CAZ + compound (4 μg/mL))?
**A.** < 0.25 mg/L

**Q.** What about the MIC ([16]; ECL UFR38, beta-lactamases CTX-M-15 NDM-1, read-out: MIC of CAZ + compound (4 μg/mL)) of the same compound?
**A.** < 0.25 mg/L

**Q.** What about the MIC ([16]; ECL UFR51, beta-lactamases SHV-12 IMP-8, read-out: MIC of CAZ + compound (4 μg/mL)) of the same compound?
**A.** < 0.25 mg/L

**Q.** What about the MIC ([16]; read-out: MIC of CAZ + compound (4 μg/mL), ECL UFR84, beta-lactamases TEM-1 AmpC OXA-1) of the same compound?
**A.** ≤ 0.25 mg/L

**Q.** What about the IC50 [17] of the same compound?
**A.** 190 nM

**Q.** And the IC50 [18]?
**A.** 5.5 nM
